Experimental data reported in publication PMC6367362, “MD001, a Novel Peroxisome Proliferator-activated Receptor α/γ Agonist, Improves Glucose and Lipid Metabolism” (Scientific Reports, 2019).

How the values were obtained:
wild type C57BL/6J mice = test: Oral once-daily administration to wild type C57BL/6J mice; format: in vivo, mouse
Experimental: Supplementary Figure S6. MD001 has no influence on food intake of mice. (A) Wild type C57/BL6 mice were orally administered with vehicle, rosiglitazone (20 mg/kg), or MD001 (20 mg/kg) once a day for 60 days. The change in their body weight was evaluated and presented as gain of body weight per group (n = 5 - 6 in each group). (B) The 3-day food intake in wild type C57/BL6 mice or db/db mice during the administration of the indicated drug was measured three times (n = 5 - 6 in each group). The data represent the mean ± SD.
C57/BL6 mice. (A-H) Wild type C57/BL6 mice were administered with vehicle, rosiglitazone (20 mg/kg), or MD001 (20 mg/kg) (n = 5 in each group) for 60 days, and their blood metabolites were measured. (B) Blood glucose level was examined during the administration of the […]

[1] = system: differentiated 3T3-L1 adipocytes; test: qRT-PCR gene expression in differentiated 3T3-L1 adipocytes; format: cell-based, mouse; details: 24 h
Experimental: Figure 3 MD001 promotes glucose consumption by induction of GLUT expression. HepG2 (A), differentiated 3T3-L1 adipocytes (B), and differentiated C2C12 myotubes (C) were treated with vehicle, MD001 (10, 50 μM), or rosiglitazone (rosi, 10 μM) for 24 h; glucose consumption was examined as described in the Methods section. Cells were harvested for total RNA isolation. Relative expression levels of GLUT2 (D) and GLUT4 (E,F) were quantitated using qRT-PCR. *, **, and ^† vs. vehicle. Data represent the mean ± SD of three independent experiments. *P < 0.05, **P < 0.01, and ^†P < 0.01.
Figure 4 MD001 stimulates fatty acid oxidation in vitro. […] Relative gene expressions were analysed by qRT-PCR. HepG2 (D), differentiated 3T3-L1 adipocytes (E), and differentiated C2C12 myotubes (F) were treated with vehicle, MD001 (10 μM), or WY14643 (WY) (10 μM) for 24 h and the fatty acid oxidation rate was analysed as described in the Methods section. […]
Total RNA was isolated using an RNeasy kit (Qiagen, Germantown, MD, USA) according to the manufacturer’s instructions. Complementary DNA (cDNA) was synthesised by reverse transcription using 0.5 μg of total RNA, and quantitative RT-PCR was performed using Power SYBR Green PCR Master Mix (ABI Thermo Fisher Scientific, Foster City, CA, USA) on a StepOne 48-well real-time PCR system (ABI/Thermo Fisher Scientific). […]

[2] = wild type C57BL/6J mice, 20 mg/kg, 60 days, compared to vehicle
[3] = wild type C57BL/6 mice, 20 mg/kg, 60 days

SMILES: Cc1c(O)cc(O)c2c(-c3ccccc3)c(C(=O)/C=C/c3ccccc3)c(=O)oc12 [MD001]
- body weight gain (wild type C57BL/6J mice; wild type C57BL/6J mice, once a day for 60 days): no induction of body weight gain
- H&E staining of adipose tissue, skeletal muscle, and liver (wild type C57BL/6J mice; wild type C57BL/6J mice, 20 mg/kg once a day for 60 days): no differences
- blood glucose (wild type C57BL/6J mice; [2]): did not have any effect
- levels of plasma lipids (wild type C57BL/6J mice; [2]): did not have any effect
- blood ALT levels (wild type C57BL/6J mice; [3]): no effect
- blood AST levels (wild type C57BL/6J mice; [3]): no effect
- expression levels of ACOX and CPT ([1]; 10 μM): significantly increased
- expression of glucose transporter GLUT4 ([1]; 10, 50 μM): significantly increased
